ChEMBL document CHEMBL2440076, “New triarylpyrazoles as broad-spectrum anticancer agents: design, synthesis, and biological evaluation” (Eur J Med Chem, 2013)

What was measured:
Type in all cases: functional
A549 = test: Growth inhibition of human A549/ATCC cells assessed as cell growth at 5X10'-7 M after 48 hrs by sulforhodamine B assay; conditions: A549, 48 h, read-out: Activity
UACC-257 = test: Growth inhibition of human UACC257 cells assessed as cell growth at 5X10'-8 M after 48 hrs by sulforhodamine B assay; conditions: UACC-257, 48 h, read-out: Activity
M14 = test: Growth inhibition of human M14 cells assessed as cell growth at 5X10'-6 M after 48 hrs by sulforhodamine B assay; conditions: M14, 48 h, read-out: Activity
KM12 = test: Growth inhibition of human KM12 cells assessed as cell growth at 5X10'-9 M after 48 hrs by sulforhodamine B assay; conditions: KM12, 48 h, read-out: Activity
UO-31 = test: Growth inhibition of human UO31 cells assessed as cell growth at 5X10'-8 M after 48 hrs by sulforhodamine B assay; conditions: UO-31, 48 h, read-out: Activity
SF-268 = test: Growth inhibition of human SF268 cells assessed as cell growth at 5X10'-9 M after 48 hrs by sulforhodamine B assay; conditions: SF-268, 48 h, read-out: Activity
SR = test: Growth inhibition of human SR cells assessed as cell growth at 5X10'-7 M after 48 hrs by sulforhodamine B assay; conditions: read-out: Activity
MOLT-4 = test: Growth inhibition of human MOLT4 cells assessed as cell growth at 5X10'-9 M after 48 hrs by sulforhodamine B assay; conditions: MOLT-4, 48 h, read-out: Activity
NCI-H322M = test: Growth inhibition of human NCI-H322M cells assessed as cell growth at 5X10'-9 M after 48 hrs by sulforhodamine B assay; conditions: read-out: Activity
DU-145 = test: Growth inhibition of human DU145 cells assessed as cell growth at 5X10'-5 M after 48 hrs by sulforhodamine B assay; conditions: DU-145, 48 h, read-out: Activity
CAKI-1 = test: Growth inhibition of human CAKI-1 cells assessed as cell growth at 5X10'-7 M after 48 hrs by sulforhodamine B assay; conditions: CAKI-1, 48 h, read-out: Activity
786-0 = test: Growth inhibition of human 786-0 cells assessed as cell growth at 5X10'-6 M after 48 hrs by sulforhodamine B assay; conditions: 786-0, 48 h, read-out: Activity
ACHN = test: Growth inhibition of human ACHN cells assessed as cell growth at 5X10'-8 M after 48 hrs by sulforhodamine B assay; conditions: read-out: Activity
U-251 = test: Growth inhibition of human U251 cells assessed as cell growth at 5X10'-8 M after 48 hrs by sulforhodamine B assay; conditions: U-251, 48 h, read-out: Activity
T47D = test: Growth inhibition of human T47D cells assessed as cell growth at 5X10'-5 M after 48 hrs by sulforhodamine B assay; conditions: read-out: Activity
A498 = test: Growth inhibition of human A498 cells assessed as cell growth at 5X10'-5 M after 48 hrs by sulforhodamine B assay; conditions: A498, 48 h, read-out: Activity
SF-539 [1] = test: Growth inhibition of human SF539 cells assessed as cell growth at 5X10'-6 M after 48 hrs by sulforhodamine B assay; conditions: SF-539, 48 h, read-out: Activity
RXF 393 [2] = test: Growth inhibition of human RXF393 cells assessed as cell growth at 5X10'-8 M after 48 hrs by sulforhodamine B assay; conditions: RXF 393, 48 h, read-out: Activity
OVCAR-3 = test: Growth inhibition of human OVCAR3 cells assessed as cell growth at 5X10'-6 M after 48 hrs by sulforhodamine B assay; conditions: OVCAR-3, 48 h, read-out: Activity
SK-MEL-5 = test: Growth inhibition of human SK-MEL-5 cells assessed as cell growth at 5X10'-8 M after 48 hrs by sulforhodamine B assay; conditions: SK-MEL-5, 48 h, read-out: Activity
SNB-75 = test: Growth inhibition of human SNB75 cells assessed as cell growth at 5X10'-8 M after 48 hrs by sulforhodamine B assay; conditions: SNB-75, 48 h, read-out: Activity
SF-539 [3] = test: Growth inhibition of human SF539 cells assessed as cell growth at 5X10'-5 M after 48 hrs by sulforhodamine B assay; conditions: SF-539, 48 h, read-out: Activity
[4] = Growth inhibition of human HCC2998 cells assessed as cell growth at 5X10'-6 M after 48 hrs by sulforhodamine B assay; conditions: HCC 2998, 48 h, read-out: Activity
RXF 393 [5] = test: Growth inhibition of human RXF393 cells assessed as cell growth at 5X10'-6 M after 48 hrs by sulforhodamine B assay; conditions: RXF 393, 48 h, read-out: Activity
UACC-62 = test: Growth inhibition of human UACC62 cells assessed as cell growth at 5X10'-6 M after 48 hrs by sulforhodamine B assay; conditions: UACC-62, 48 h, read-out: Activity
HT-29 = test: Growth inhibition of human HT-29 cells assessed as cell growth at 5X10'-7 M after 48 hrs by sulforhodamine B assay; conditions: HT-29, 48 h, read-out: Activity
HL-60(TB) [6] = test: Growth inhibition of human HL-60(TB) cells assessed as cell growth at 5X10'-8 M after 48 hrs by sulforhodamine B assay; conditions: HL-60, 48 h, read-out: Activity
HCT-15 = test: Growth inhibition of human HCT15 cells assessed as cell growth at 5X10'-8 M after 48 hrs by sulforhodamine B assay; conditions: HCT-15, 48 h, read-out: Activity
MDA-MB-435 = test: Growth inhibition of human MDA-MB-435 cells assessed as cell growth at 5X10'-7 M after 48 hrs by sulforhodamine B assay; conditions: MDA-MB-435, 48 h, read-out: Activity
OVCAR-8 = test: Growth inhibition of human OVCAR8 cells assessed as cell growth at 5X10'-9 M after 48 hrs by sulforhodamine B assay; conditions: OVCAR-8, 48 h, read-out: Activity
NCI-H226 = test: Growth inhibition of human NCI-H226 cells assessed as cell growth at 5X10'-9 M after 48 hrs by sulforhodamine B assay; conditions: NCI-H226, 48 h, read-out: Activity
RXF 393 [7] = test: Growth inhibition of human RXF393 cells assessed as cell growth at 5X10'-9 M after 48 hrs by sulforhodamine B assay; conditions: RXF 393, 48 h, read-out: Activity
HL-60(TB) [8] = test: Growth inhibition of human HL-60(TB) cells assessed as cell growth at 5X10'-5 M after 48 hrs by sulforhodamine B assay; conditions: HL-60, 48 h, read-out: Activity
CCRF-CEM = test: Growth inhibition of human CCRF-CEM cells assessed as cell growth at 5X10'-5 M after 48 hrs by sulforhodamine B assay; conditions: read-out: Activity
SW-620 = test: Growth inhibition of human SW620 cells assessed as cell growth at 5X10'-9 M after 48 hrs by sulforhodamine B assay; conditions: SW-620, 48 h, read-out: Activity
TK-10 = test: Growth inhibition of human TK10 cells assessed as cell growth at 5X10'-9 M after 48 hrs by sulforhodamine B assay; conditions: TK-10, 48 h, read-out: Activity

O=C(Nc1cccc(-n2cc(-c3ccncc3)c(-c3ccc(Cl)c(O)c3)n2)c1)Nc1cc(C(F)(F)F)cc(C(F)(F)F)c1
growth at 0.5 µM (A549): 37% | growth at 0.05 µM (UACC-257): 89% | growth at 5 µM (M14): -47% | growth at 0.005 µM (KM12): 105% | growth at 0.05 µM (UO-31): 89% | growth at 0.005 µM (SF-268): 98% | growth at 0.5 µM (SR): 72% | growth at 0.005 µM (MOLT-4): 106% | growth at 0.005 µM (NCI-H322M): 108% | growth at 50 µM (DU-145): -97% | growth at 0.5 µM (CAKI-1): 74% | growth at 5 µM (786-0): -23% | growth at 0.05 µM (ACHN): 96% | growth at 0.05 µM (U-251): 93% | growth at 50 µM (T47D): -25% | growth at 50 µM (A498): -95% | growth at 5 µM (SF-539 [1]): -91% | growth at 0.05 µM (RXF 393 [2]): 89% | growth at 5 µM (OVCAR-3): -70% | growth at 0.05 µM (SK-MEL-5): 92% | growth at 0.05 µM (SNB-75): 86% | growth at 50 µM (SF-539 [3]): -96% | growth at 5 µM [4]: -43% | growth at 5 µM (RXF 393 [5]): -36% | growth at 5 µM (UACC-62): -38% | growth at 0.5 µM (HT-29): 72% | growth at 0.05 µM (HL-60(TB) [6]): 122% | growth at 0.05 µM (HCT-15): 93% | growth at 0.5 µM (MDA-MB-435): 79% | growth at 0.005 µM (OVCAR-8): 101% | growth at 0.005 µM (NCI-H226): 98% | growth at 0.005 µM (RXF 393 [7]): 95% | growth at 50 µM (HL-60(TB) [8]): -4% | growth at 50 µM (CCRF-CEM): -18% | growth at 0.005 µM (SW-620): 99% | growth at 0.005 µM (TK-10): 107%
